Measurements from patent publication EP0819136B1, “MDP DERIVATIVES AND CONJUGATES HAVING HAEMATOPOIETIC FUNCTION STIMULATING ACTIVITY, AND COMPOSITIONS CONTAINING SAME” (VACSYN S.A., priority 1995, dated 1996).

Key:
myélocytes circulants [1] = test: Circulating myelocytes 24 h after 4 daily oral administrations of AZT and/or Muradimétide (Example 4, Table 3); format: in vivo, souris; conditions: for Nbre de myélocytes circulants: 24 h after 4 daily administrations
Experimental: Le tableau 3 ci-dessous et la figure 11 indiquent l'effet d'un traitement per os des souris avec du Muradimétide avant, en même temps ou après l'AZT administré à 50 mg par kg, sur le nombre de myélocytes circulants testés 24 heures après 4 administrations quotidiennes. Tableau 3
Le nombre moyen de myélocytes circulant avant le traitement se situe entre 3 et 15 X 10^4 cellules par ml dans les 5 groupes.
La « P-value » a été calculée par le test Mann Whitney U Rank.
NS signifie que la différence n'est pas significative. Ce tableau confirme que l'augmentation des myélocytes circulants est d'environ 200 quand il y a effet conjoint de l'AZT et du Muradimétide. Les deux constituants de la combinaison ont été administrés per os soit simultanément soit à des temps séparés.

[2] = system: leucocytes circulants normaux (majoritairement neutrophiles et lymphocytes) et immatures (myélocytes); test: Circulating blood cell counts in mice after 4 consecutive days of i.v. Muradimétide alone (Example 1); format: in vivo, souris; conditions: for Nbre de Leucocytes / Nbre de Lymphocytes / Nbre de Myélocytes / Nbre de Neutrophiles: Muradimétide 25 mg/kg i.v., 4 consecutive days
Experimental: Le tableau 1 ci-dessous représente les numérations des leucocytes, neutrophiles, lymphocytes et myélocytes en fonction du temps après traitement par le Muradimétide seul administré à la dose de 25 mg/kg. Le traitement est effectué pendant 4 jours consécutifs par injection intraveineuse.
Effet de 4 jours de traitement consécutifs des souris par voie veineuse avec le Muradimétide (25 mg/kg) sur les modifications du nombre de leucocytes circulants normaux (majoritairement neutrophiles et lymphocytes) et immatures (myélocytes).

myélocytes circulants [3] = test: Circulating myelocytes during two weeks of oral treatment, 4 days per week (Example 4, figure 11); format: in vivo, souris; conditions: p.o. days 0, 1, 2, 3 and 7, 8, 9, 10; MDM 25 mg/kg, AZT 50 mg/kg or both
Experimental: La figure 11 représente l'effet d'un traitement per os de souris pendant deux semaines consécutives (4 jours par semaine) avec l'AZT, le Muradimétide ou le mélange des deux sur le nombre des myélocytes circulants.
La figure 11 montre l'effet d'un traitement par le MDM à 25 mg/kg (X), de l'AZT à 50 mg/kg (O) et du mélange des deux (□) sur le comptage des myélocytes de souris traitées pendant 2 semaines aux jours 0, 1, 2, 3 de la première semaine et 7, 8, 9, 10 de la deuxième semaine. […] Si l'effet est surtout marqué au niveau de la première semaine, cela montre que le traitement nécessite un certain espace de temps entre les différents cycles de traitement et que des traitements répétés pourraient, le cas échéant, être utiles.

CSH = test: Circulating CSH at different stages of differentiation, colony cultures of blood mononuclear cells from treated mice (Example 7, figures 14a-d); format: in vivo, souris (10 Balb/c par groupe); conditions: once daily for three consecutive days, MDM 25 mg/kg with or without AZT 50 mg/kg; blood collected 24 h after the last administration
Text: Ces expériences ont pour objet la mise en évidence des différentes populations de CSH présentes dans le sang circulant.
Ont été recherchés les stades suivants depuis les plus primitifs décelables en culture et qui ne présentent aucun signe de différenciation comme les CFAC (Coblestone Area Forming Cells) et LTC-IC (Long Term Culture - Initiating Cells) jusqu'au GM-CFU (Granulocyte Macrophage - Colony Forming Units) en passant par des stades intermédiaires comme les HPP et LPP-CFU (respectivement High Proliferating Potential and Low Proliferating Potential CFU). Dans tous les cas, les conditions de cultures, en particulier leur durée, ont été choisies pour permettre une détection optimale des différentes populations considérées.
Ont été comparés pour cette étude l'effet de l'injection de saline (X-), d'AZT à 50 mg/kg, du MDM à 25 mg/kg et le mélange des deux sur le nombre de CSH cirulants. Les cellules mononucléaires après purification ont été cultivées pendant 5 jours pour dénombrer les GM-UFC (pour granulocytes - macrophages unités formant colonies), pendant 28 jours pour dénombrer les unités formant colonies à bas potentiel prolifératif (LPP) et les UFC à haut potentiel prolifératif (HPP). Les CAFC ont été dénombrés après 14 jours de culture. Les LTC-IC après 28 jours. Les résultats sont présentés sur les figures 14a, 14b, 14c et 14d respectivement. […]

With `COC(=O)CC[C@@H](NC(=O)[C@H](C)NC(=O)[C@@H](C)O[C@H]1[C@H](O)[C@@H](CO)OC(O)[C@@H]1NC(C)=O)C(=O)OC` (stereo partly drawn) [Muradimétide, Nac-Mur-L-Ala-D-Glu-[OCH3]-OCH3] the “Nbre de myélocytes circulants” value (myélocytes circulants [1]; AZT 50mg/Kg p.o. at 0 h + Muradimetide 25mg/Kg p.o. at 0 h) was 215 ± 51 x 10^4/ml, the “Nbre de myélocytes circulants” value (myélocytes circulants [1]; AZT 50mg/Kg p.o. at 0 h + Muradimetide 25mg/Kg p.o. at -4 h) was 194 ± 50 x 10^4/ml and the “Nbre de myélocytes circulants” value (myélocytes circulants [1]; AZT 50mg/Kg p.o. at -4 h + Muradimetide 25mg/Kg p.o. at 0 h) was 187 ± 42 x 10^4/ml. The “Nbre de myélocytes circulants” value (myélocytes circulants [1]; Muradimetide 25mg/Kg p.o. alone at 0 h) was 17 ± 15 x 10^4/ml, the “augmentation des myélocytes circulants” value (myélocytes circulants [1]; joint effect of AZT 50 mg/kg and Muradimétide 25 mg/kg p.o., simultaneously or at separate times) was roughly 200 and the “Nbre de Leucocytes” value ([2]; day 0) was 50 ± 14° x 10^5/ml. The “Nbre de Lymphocytes” value ([2]; day 0) was 38±12 x 10^5/ml, the “Nbre de Myélocytes” value ([2]; day 0) was 7 ± 6 x 10^4/ml and the “Nbre de Neutrophiles” value ([2]; day 0) was 11±3 x 10^5/ml. The “Nbre de Leucocytes” value ([2]; day 2) was 52±12 x 10^5/ml, the “Nbre de Lymphocytes” value ([2]; day 2) was 41 ± 17 x 10^5/ml and the “Nbre de Myélocytes” value ([2]; day 2) was 8±8 x 10^4/ml. For the same molecule, the “Nbre de Neutrophiles” value ([2]; day 2) was 10±3 x 10^5/ml, the “Nbre de Leucocytes” value ([2]; day 3) was 52 ± 17 x 10^5/ml and the “Nbre de Lymphocytes” value ([2]; day 3) was 35 ± 13 x 10^5/ml. For the same molecule, the “Nbre de Myélocytes” value ([2]; day 3) was 40±5 x 10^4/ml, the “Nbre de Neutrophiles” value ([2]; day 3) was 13 ± 5 x 10^5/ml and the “Nbre de Leucocytes” value ([2]; day 4) was 52 ± 15 x 10^5/ml. The “Nbre de Lymphocytes” value ([2]; day 4) was 34 ± 8 x 10^5/ml, the “Nbre de Myélocytes” value ([2]; day 4) was 72 ± 27 x 10^4/ml and the “Nbre de Neutrophiles” value ([2]; day 4) was 12 ± 4 x 10^5/ml. For the same molecule, the “Nbre de Leucocytes” value ([2]; day 7) was 50±13 x 10^5/ml, the “Nbre de Lymphocytes” value ([2]; day 7) was 38±10 x 10^5/ml and the “Nbre de Myélocytes” value ([2]; day 7) was 4 ± 4 x 10^4/ml. For the same molecule, the “Nbre de Neutrophiles” value ([2]; day 7) was 12±4 x 10^5/ml, the “nombre de myélocytes circulants (result in words)” value ([2]; Muradimétide alone 25 mg/kg i.v., days 3 and 4) was “augmentation du nombre de myélocytes circulants qui est hautement significative” and the “effet sur la mobilisation des CHS (comptage des myélocytes)” value (myélocytes circulants [3]) was “effet significatif”. The “nombre de CSH circulants (GM-CFU, LPP-CFU, HPP-CFU)” value (CSH) was “apparaît clairement”.
